Legend:
[1] = Drug metabolism in potassium phosphate buffer treated with R-133490 at 1 uM after 1 to 10 mins by LC-MS/MS analysis in presence of human liver cytosol and glutathione; type: physicochemical
[2] = system: Liver microsome; test: Drug metabolism in human liver microsomes treated with R-133490 at 1 uM after 1 to 10 mins by LC-MS/MS analysis in presence of human liver cytosol and glutathione; type: ADME
[3] = Drug metabolism in potassium phosphate buffer treated with R-133490 at 1 uM after 1 to 10 mins by LC-MS/MS analysis; type: physicochemical
[4] = system: Liver cytosol; test: Drug metabolism in human liver cytosol treated with R-133490 at […] 0.05 mM after 5 mins by HPLC analysis in presence of dithiothreitol and 67 ug/ml anti-human thioredoxin antibody; type: ADME; settings: 50 µM

Measured: Drug metabolism

O=C(O)/C=C1/CN(C(C(=O)C2CC2)c2ccccc2F)CCC1S (centres undefined) [R-138727]
metabolite_detected: all assays above
